Results on 2 molecules are retold here after BindingDB's records for patent US20250304587 (Jiangsu Tasly Diyi Pharmaceutical, 2025).

The test concerns the target Cytochrome P450 2C19 (Homo sapiens, UniProt P33261). Nature of the test: Evaluation of Compound Inhibition of Cytochrome P450.

Chain of Cytochrome P450 2C19 (P33261 whole entry): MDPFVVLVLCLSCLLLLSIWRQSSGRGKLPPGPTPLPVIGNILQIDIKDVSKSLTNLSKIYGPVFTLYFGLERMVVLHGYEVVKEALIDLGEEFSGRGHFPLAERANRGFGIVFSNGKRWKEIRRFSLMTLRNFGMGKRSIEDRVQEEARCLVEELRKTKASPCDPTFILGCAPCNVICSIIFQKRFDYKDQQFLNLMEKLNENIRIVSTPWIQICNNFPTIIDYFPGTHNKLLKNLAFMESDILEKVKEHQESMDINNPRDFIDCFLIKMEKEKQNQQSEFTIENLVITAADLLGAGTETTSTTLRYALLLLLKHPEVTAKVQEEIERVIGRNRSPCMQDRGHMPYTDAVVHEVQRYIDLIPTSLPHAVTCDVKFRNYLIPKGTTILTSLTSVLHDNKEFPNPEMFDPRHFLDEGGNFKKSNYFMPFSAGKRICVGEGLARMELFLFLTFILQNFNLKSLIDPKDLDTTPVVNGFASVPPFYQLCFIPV
Description: Enzymatic experiments were performed to quantify the inhibition of CYP450 enzyme activity of each isoform of CYP450 by small molecule inhibitors through fluorescence generated by the oxidation of the substrate by cytochrome P450. […] The Solution B composition used for the experiment was: 40 U/mL G6PDH (Sigma-aldrich, Cat #G6378). The substrate mix was 0.05× Solution A, 0.01× Solution B, 50 mM Potassium Phosphate, 0.01 mM BOMCC/0.01 mM EOMCC/0.001 mM DBOMF.

For `C=CCn1c(=O)c2cnc(Nc3ccc(N4CCC5(CCN(C)CC5)CC4)cc3)nc2n1-c1ccc2c(n1)[C@](C)(O)C1(CC2)CC1` (racemic) [US20250304587, Compound 44], the IC50 is 1 to 10 µM.

Take `C=CCn1c(=O)c2cnc(Nc3ccc(N4CC5CC(C4)N5C)cc3)nc2n1-c1ccc2c(n1)[C@@](C)(O)C1(CC2)CC1` [US20250304587, Compound 7a]: the IC50 lay within 1 to 10 µM.
